According to US20100081679A1, “DIAMINOPYRIMIDINES AS FUNGICIDES” (Bayer CropScience AG, priority 2007, published 2010):
Marks after values point to notes of the source that are not given here.

test: logP determination via retention times, calibrated with unbranched alkan-2-ones; assay type: physicochemical; details: HPLC on reversed-phase C 18, EEC Directive 79/831 Annex V.A8; method **: 43° C., 0.1% aqueous phosphoric acid and acetonitrile, linear gradient 10% to 95% acetonitrile

SMILES	logP
Fc1ccc(Nc2ncc(C(F)(F)F)c(NC3CC3)n2)cc1 [compound 498]	2.96**

same assay, conditions: HPLC on reversed-phase C 18, EEC Directive 79/831 Annex V.A8; method *: 40° C., 0.1% aqueous formic acid and acetonitrile, linear gradient 10% to 95% acetonitrile

SMILES	logP
CC(C)(C)NC(=O)Cc1cccc(Nc2ncc(Cl)c(NC3CC3)n2)c1 [compound 562]	1.81*
Clc1cnc(Nc2cccc(N3CCCCC3)c2)nc1NC1CC1 [compound 535]	1.45*
FC(F)C(F)(F)Oc1cccc(Nc2ncc(Br)c(NCC3CC3)n2)c1 [compound 493]	3.1*
CCOC(=O)Cc1ccc(Nc2ncc(Cl)c(NCC3CC3)n2)cc1 [compound 539]	2.09*
O=C1COCCN1c1ccc(Nc2ncc(Cl)c(NC3CC3)n2)cc1 [compound 495]	1.17*
Oc1ccc(Nc2ncc(Br)c(NCC3CC3)n2)c(F)c1 [compound 478]	1.51*
O=C1CCCN1c1cccc(Nc2ncc(Cl)c(NCC3CC3)n2)c1 [compound 520]	1.56*
CCN(C(C)=O)c1ccc(Nc2ncc(Cl)c(NCC3CC3)n2)cc1 [compound 506]	1.73*
COc1cc(Nc2ncc(Cl)c(NCC3CC3)n2)ccc1NC(C)=O [compound 503]	1.53*
CC(=O)Cc1ccc(Nc2ncc(Br)c(NC3CC3)n2)cc1 [compound 565]	1.58*
CCOC(=O)c1cccc(Nc2ncc(Br)c(NCC3CC3)n2)c1 [compound 477]	2.51*
CC(=O)c1cc(Nc2ncc(Cl)c(NCC3CC3)n2)ccc1Cl [compound 540]	2.51*
CCCCC(=O)Oc1ccc(Nc2ncc(Cl)c(NCC3CC3)n2)cc1 [compound 551]	3.8*
Cc1cc(C)cc(Nc2ncc(Br)c(NCC3CC3)n2)c1 [compound 471]	2.36*
CC(=O)N1CCc2ccc(Nc3ncc(Cl)c(NCC4CC4)n3)cc21 [compound 521]	1.66*
CC(=O)Nc1ccc(Nc2ncc(Br)c(NCC3CC3)n2)cc1Cl [compound 479]	1.68*
CC(=O)Nc1ccc(Nc2ncc(Br)c(NCC3CC3)n2)cn1 [compound 481]	1.47*

same assay, conditions: HPLC on reversed-phase C 18, method **: 43° C.; 0.1% aqueous phosphoric acid and acetonitrile; linear gradient 10% to 95% acetonitrile

SMILES	logP
CC(=O)Nc1cc(Nc2ncc(C(F)(F)F)c(NC3CC3)n2)ccc1C [compound 662]	1.82**
CSc1cccc(Nc2ncc(Cl)c(N(C)CC3CC3)n2)c1 [compound 968]	3.6**

same assay, conditions: HPLC on reversed-phase C18, method *: 40° C., 0.1% aqueous formic acid and acetonitrile, linear gradient 10% to 95% acetonitrile

SMILES	logP
Cc1cccc(C)c1Nc1ncc(Cl)c(NCC2CC2)n1 [compound 682]	1.87*
CSc1ccc(Nc2ncc(Br)c(NC3CC3)n2)cc1Cl [compound 746]	3.03*
CCOC(=O)Nc1ccc(Nc2ncc(Br)c(NC3CC3)n2)cc1O [compound 728]	1.53*
Clc1cc(Nc2ncc(Cl)c(NC3CC3)n2)ccc1Br [compound 919]	3.63*
Cc1cccc(Nc2ncc(Cl)c(NC3CC3)n2)c1 [compound 731]	1.93*
CCC(C)c1ccc(Nc2ncc(Cl)c(NC3CC3)n2)cc1 (racemic) [compound 954]	2.77*
CSc1cccc(Nc2ncc(Br)c(NC3CC3)n2)c1 [compound 121]	2.44*
COCc1cccc(Nc2ncc(Cl)c(NCC3CC3)n2)c1 [compound 709]	1.82*
CC(=O)Nc1cc(Nc2ncc(C(F)(F)F)c(NC3CC3)n2)ccc1C [compound 662]	1.71*;
CN(C=O)c1ccc(Nc2ncc(Cl)c(NC3CC3)n2)cc1 [compound 978]	1.44*
CC[S+]([O-])c1cccc(Nc2ncc(Br)c(NC3CC3)n2)c1 (racemic) [compound 958]	1.59*
COCc1cccc(Nc2ncc(C(F)(F)F)c(NC3CC3)n2)c1 [compound 721]	2.78*
CC(C)Sc1cccc(Nc2ncc(Br)c(NC3CC3)n2)c1 [compound 707]	3.38*
COc1ccc(Nc2ncc(Br)c(NC3CC3)n2)cc1OC [compound 742]	1.53*
Oc1cccc(Nc2ncc(Br)c(NC3CC3)n2)c1 [compound 765]	1.39*
Clc1cc(Cl)cc(Nc2ncc(Cl)c(NCC3CC3)n2)c1 [compound 690]	4.3*
CCC(C)Sc1cccc(Nc2ncc(Cl)c(NC3CC3)n2)c1 (stereo not shown) [compound 665]	3.69*

same assay, conditions: HPLC on reversed-phase C18, method *: 40° C.; mobile phase 0.1% aqueous formic acid and acetonitrile; linear gradient 10% to 95% acetonitrile

SMILES	logP
O=C(Nc1ccc(Nc2ncc(Br)c(NC3CC3)n2)cc1)C(F)(F)F [compound 350]	1.97*
Clc1cc(Cl)cc(Nc2ncc(Cl)c(NC3CC3)n2)c1 [compound 291]	4.04*
COc1ccc(Nc2ncc(Cl)c(NC3CC3)n2)cc1OC [compound 279]	1.47*
Cc1cccc(C)c1Nc1ncc(Cl)c(NC2CC2)n1 [compound 273]	1.59*
COC(=O)Cc1ccc(Nc2ncc(Cl)c(NC3CC3)n2)cc1 [compound 287]	1.85*

same assay, conditions: HPLC on reversed-phase C18 column (EEC Directive 79/831 Annex V.A8); method *: 40° C.; 0.1% aqueous formic acid and acetonitrile; linear gradient 10% to 95% acetonitrile

SMILES	logP
CC(C)Oc1cccc(Nc2ncc(Cl)c(NC3CC3)n2)c1 [compound 195]	2.45*
O=S1(=O)Cc2ccc(Nc3ncc(Cl)c(NC4CC4)n3)cc2C1 [compound 245]	1.51*
O=C1CCCc2ccc(Nc3ncc(Cl)c(NC4CC4)n3)cc2N1 [compound 181]	1.41*
CS(=O)(=O)c1ccc(Nc2ncc(C(F)(F)F)c(NCC3CC3)n2)cc1 [compound 200]	2.63*
CCC(=O)c1cc(Nc2ncc(Cl)c(NC3CC3)n2)ccc1O [compound 250]	1.99*
COC(=O)Nc1cccc(Nc2ncc(Cl)c(NC3CC3)n2)c1 [compound 193]	1.44*
CS(=O)(=O)c1cccc(Nc2ncc(Cl)c(NC3CC3)n2)c1 [compound 252]	1.63*
CN(C)S(=O)(=O)c1cccc(Nc2ncc(Br)c(NCC3CC3)n2)c1 [compound 192]	2.48*

same assay, conditions: HPLC reversed-phase C 18, EEC Directive 79/831 Annex V.A8; method *: 40° C., 0.1% aqueous formic acid and acetonitrile, linear gradient 10% to 95% acetonitrile

SMILES	logP
Brc1cnc(Nc2ccccc2)nc1NCCC1CC1 [compound 809]	2.18*
CC(C)(C)c1cccc(Nc2ncc(Br)c(NC3CC3)n2)c1 [compound 779]	3.14*
COC(C)c1cccc(Nc2ncc(C(F)(F)F)c(NC3CC3)n2)c1 (stereo not shown) [compound 826]	3.16*
OC(c1cccc(Nc2ncc(Br)c(NC3CC3)n2)c1)C(F)(F)F (stereo not shown) [compound 798]	1.94*
O=[N+]([O-])c1cccc(Nc2ncc(Cl)c(NC3CC3)n2)c1 [compound 788]	2.63*
O=C1OCCN1c1cccc(Nc2ncc(Br)c(NC3CC3)n2)c1 [compound 842]	1.51*
CCSC(C)c1cccc(Nc2ncc(Cl)c(NC3CC3)n2)c1 (stereo not shown) [compound 810]	2.82*

same assay, conditions: method **: HPLC reversed-phase C 18, 43° C., 0.1% aqueous phosphoric acid and acetonitrile, linear gradient 10% to 95% acetonitrile

SMILES	logP
CC(=O)c1cccc(Nc2ncc(Cl)c(NC3CC3)n2)c1 [Example 5]	1.84**
Cl.Fc1cnc(Nc2ccccc2)nc1NC1CC1 [compound 41]	1.45**

same assay, conditions: method **: HPLC reversed-phase C 18, temperature 43° C.; mobile phase 0.1% aqueous phosphoric acid and acetonitrile; linear gradient 10% to 95% acetonitrile

SMILES	logP
CC(C)NC(=O)Nc1ccc(Nc2ncc(Cl)c(NC3CC3)n2)cc1 [compound 632]	1.32**
CC(=O)c1cccc(Nc2ncc(C(F)(F)F)c(NC3CC3)n2)c1 [compound 657]	2.72**

same assay, conditions: method **: HPLC, reversed-phase C 18, 43° C., mobile phase 0.1% aqueous phosphoric acid and acetonitrile, linear gradient from 10% to 95% acetonitrile

SMILES	logP
COCc1cccc(Nc2ncc(Cl)c(NC3CC3(C)C)n2)c1 (stereo not shown) [compound 1028]	2.37**
CC1CC1Nc1nc(Nc2ccccc2)ncc1Cl (stereo not shown) [compound 1008]	2**
COc1ccc(CN(c2nc(Nc3cccc(N4CCCC4=O)c3)ncc2Cl)C2CC2)cc1 [compound 1045]	3.37**

same assay, conditions: method *: HPLC reversed-phase C18, 40° C., 0.1% aqueous formic acid and acetonitrile, linear gradient 10% to 95% acetonitrile

SMILES	logP
CC(C)(CF)C(=O)Nc1ccc(Nc2ncc(Cl)c(NC3CC3)n2)cc1 [Example 67]	1.74*
CC(C)COc1cccc(Nc2ncc(Br)c(NC3CC3)n2)c1 [compound 445]	3.36*
COC(=O)Nc1ccc(Nc2ncc(C)c(NC3CC3)n2)cc1 [compound 446]	1.06*
N#Cc1cnc(Nc2ccccc2)nc1NCC1CC1 [compound 87]	2.77*
N#Cc1ccc(Nc2ncc(Cl)c(NC3CC3)n2)cc1 [compound 374]	2.33*

same assay, conditions: method *: HPLC reversed-phase C 18, temperature 40° C.; mobile phase 0.1% aqueous formic acid and acetonitrile; linear gradient 10% to 95% acetonitrile

SMILES	logP
COc1cc(Nc2ncc(C(F)(F)F)c(NC3CC3)n2)ccc1F [compound 635]	2.99*
CNC(=O)Nc1cccc(Nc2ncc(F)c(NC3CC3)n2)c1 [compound 597]	1.28*
COc1cccc(Nc2ncc(C#N)c(NC3CC3)n2)c1 [compound 604]	2.48*
CSc1ccc(Nc2ncc(C(F)(F)F)c(NC3CC3)n2)cc1Cl [compound 646]	4.08*
COc1cc(Nc2ncc(F)c(NC3CC3)n2)ccc1NC(C)=O [compound 572]	1.17*
CC(=O)c1cccc(Nc2ncc(C(F)(F)F)c(NC3CC3)n2)c1 [compound 657]	2.57*;
N#Cc1cnc(Nc2ccc3c(c2)CC(=O)N3)nc1NC1CC1 [compound 613]	1.5*

same assay, conditions: method *: HPLC, reversed-phase C 18, 40° C., mobile phase 0.1% aqueous formic acid and acetonitrile, linear gradient from 10% to 95% acetonitrile

SMILES	logP
Clc1cnc(Nc2ccc3ncsc3c2)nc1NC1CC1 [compound 995]	1.66*
CCCCSc1cccc(Nc2ncc(Cl)c(NC3CC3)n2)c1 [compound 1054]	3.78*
COCc1cccc(Nc2ncc(Cl)c(NC3CC3(C)C)n2)c1 (stereo not shown) [compound 1028]	2.36*;
COCc1cc(COC)cc(Nc2ncc(Cl)c(NC3CC3)n2)c1 [compound 1012]	1.76*

same assay, conditions: pH 2.3; read-out: logP (pH2.3)

SMILES	chromatographic logP
Clc1cnc(Nc2ccccc2)nc1NC1CC1 [Example 2, 5-Chloro-N^4-cyclopropyl-N^2-phenylpyrimidine-2,4-diamine]	1.61

same assay, conditions: reversed-phase C18 HPLC column; method *: HPLC reversed-phase C 18, 40° C., 0.1% aqueous formic acid and acetonitrile, linear gradient 10% to 95% acetonitrile; read-out: logP

SMILES	chromatographic logP
Clc1cnc(Nc2ccccc2)nc1NC1CC1 [Example 2, 5-Chloro-N^4-cyclopropyl-N^2-phenylpyrimidine-2,4-diamine]	1.61
